Laboratory results from patent US20040253252A1, “Biological compositions and methods for treatment of leukemia” (priority 2003, published 2004).
Like-named read-outs stand apart in the source and are kept apart here.

What was measured:
Assay type in all cases: in vivo, mouse
leukemia cell line T739 [1] = conditions: T739 mice; for Number of live animals remaining in the group: 30 mice per group
Experimental: The survival time of the […] after tumor injection and treatment was studied.
(§1) The biological composition comprising 10^8 cells per ml of activated and conditioned yeast cells of the strain Saccharomyces cerevisiae Hansen strain AS2.11 was prepared by the methods described in Section 5.1 and subsections therein.
The animals were prepared in a similar manner as described in Section 8.1.
(§2) The mice injected with tumor cells were immediately divided into 4 experimental groups of ten mice per group and one control group. The four experimental groups were triplicated (i.e., using a total of 120 mice in the experimental groups). In group 2AY, the mice received 0.3 ml of the biological composition once per day. In group 2NY, the mice received 0.3 ml of the untreated yeast cells once per day. […] In group 2CK1, the mice received 0.3 ml of physiological saline once per day.
(§3) The mice in group CK2 also started receiving saline on the same day as the other four groups. […] The mice were observed over 6 months from the day of tumor inoculation and survival was recorded. The number of tumor cells in the mice were determined by standard techniques.

leukemia cell line L6565 [2] = conditions: SWI mice; for Number of live animals remaining in the group: 30 mice per group
Experimental: The survival time of mice after tumor injection and treatment was studied.
as §1
The animals were prepared in a similar manner as described in Section 6.1.
as §2, with “kept for 5 days and then were” for “immediately”
as §3

leukemia cell line L6565 [3] = conditions: SWI mice
Experimental: as §1
(§4) The mice injected with tumor cells were immediately divided into 4 experimental groups of ten mice per group and one control group. The four experimental groups were triplicated (i.e., using a total of 120 mice in the experimental groups).
(§5) The mice in group CK2 also started receiving saline on the same day as the other four groups. […] The number of tumor cells in the mice were determined by standard techniques.

leukemia cell line T739 [4] = conditions: T739 mice
Experimental: as §1, §4, §5

[5] = 1 month after cessation of treatment
[6] = 2 months after cessation of treatment
[7] = 3 months after cessation of treatment
[8] = 4 months after cessation of treatment
[9] = 5 months after cessation of treatment
[10] = 6 months after cessation of treatment

O=P1(N(CCCl)CCCl)NCCCO1 (centres unmarked) [CTX, cyclophosphamide]
Number of live animals remaining in the group (leukemia cell line T739 [1]; 0 month after cessation of treatment): 28 | Number of live animals remaining in the group (leukemia cell line T739 [1]; [5]): 19 | Number of live animals remaining in the group (leukemia cell line T739 [1]; [6]): 3 | Number of live animals remaining in the group (leukemia cell line T739 [1]; [7]): 0 | Number of live animals remaining in the group (leukemia cell line T739 [1]; [8]): 0 | Number of live animals remaining in the group (leukemia cell line T739 [1]; [9]): 0 | Number of live animals remaining in the group (leukemia cell line T739 [1]; [10]): 0 | survival outcome during the experiment (leukemia cell line T739 [1]; observed over 6 months): died during the experiment | Number of live animals remaining in the group (leukemia cell line L6565 [2]; 0 month after cessation of 21 days of treatment): 28 | Number of live animals remaining in the group (leukemia cell line L6565 [2]; [5]): 19 | Number of live animals remaining in the group (leukemia cell line L6565 [2]; [6]): 3 | Number of live animals remaining in the group (leukemia cell line L6565 [2]; [7]): 0 | Number of live animals remaining in the group (leukemia cell line L6565 [2]; [8]): 0 | Number of live animals remaining in the group (leukemia cell line L6565 [2]; [9]): 0 | Number of live animals remaining in the group (leukemia cell line L6565 [2]; [10]): 0 | survival outcome during the experiment (leukemia cell line L6565 [2]; observed over 6 months): died during the experiment | development of leukemia (leukemia cell line L6565 [3]; L6565, 21 days of treatment): developed leukemia | number of leukemia cells and standard deviation (leukemia cell line L6565 [3]; L6565 cells s.c., 21 consecutive days of treatment, sacrificed on 22nd day (or measured at time of death)): 933 ± 241 cells/ml | number of leukemia cells and standard deviation (leukemia cell line T739 [4]; T739 cells s.c., 21 consecutive days of treatment, sacrificed on 22nd day (or measured at time of death)): 957 ± 132 cells/ml | development of leukemia (leukemia cell line T739 [4]; 21 days of treatment): developed leukemia
